Laboratory results from patent US7109354B2, “Thiophene amidines, compositions thereof, and methods of treating complement-mediated diseases and conditions” (3-Dimensional Pharmaceuticals, Inc., priority 2002, dated 2006).
Counter-ions that a name gives are not always drawn.

Target: T1, Activated human C1s (Homo sapiens, UniProt P09871)
T1 construct: purchased Calbiochem (La Jolla, Calif.)
T1 sequence (P09871 438-688 limits assumed): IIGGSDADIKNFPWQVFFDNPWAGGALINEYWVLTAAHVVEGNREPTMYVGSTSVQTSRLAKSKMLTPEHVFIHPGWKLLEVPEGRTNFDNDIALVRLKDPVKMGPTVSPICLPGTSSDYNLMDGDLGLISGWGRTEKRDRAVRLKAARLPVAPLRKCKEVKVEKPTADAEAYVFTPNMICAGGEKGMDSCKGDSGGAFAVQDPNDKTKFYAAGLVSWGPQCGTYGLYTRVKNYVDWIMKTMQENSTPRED
T1 sequence (P09871 16-437 partner limits assumed): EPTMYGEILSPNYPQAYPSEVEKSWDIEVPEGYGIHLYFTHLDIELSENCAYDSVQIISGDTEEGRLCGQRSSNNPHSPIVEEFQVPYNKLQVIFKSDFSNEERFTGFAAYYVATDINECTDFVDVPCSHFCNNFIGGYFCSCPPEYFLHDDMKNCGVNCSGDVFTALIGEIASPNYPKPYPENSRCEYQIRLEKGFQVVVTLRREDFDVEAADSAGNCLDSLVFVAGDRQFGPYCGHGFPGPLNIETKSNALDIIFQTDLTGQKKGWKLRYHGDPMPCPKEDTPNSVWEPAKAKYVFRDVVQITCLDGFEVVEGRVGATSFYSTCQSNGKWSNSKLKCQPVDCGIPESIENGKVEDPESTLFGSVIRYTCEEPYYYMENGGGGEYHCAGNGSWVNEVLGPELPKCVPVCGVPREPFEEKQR
Experiment: In vitro inhibition of C1s (Ki determination, C1s-catalyzed hydrolysis of Z-Gly-Arg-S-Bzl, DTNB readout)
Type: biochemical
Conditions: substrate Z-Gly-Arg-S-Bzl 45 μM, DTNB 200 μM, C1s 2.3 nM, pH 7.5, 37° C., absorbance at 405 nm
Description: Reagents: All buffer salts were obtained from Sigma Chemical Company (St. Louis, Mo.), and were of the highest purity available. DTNB was purchased from Pierce (Rockford, Ill.). Z-Gly-Arg-S-Bzl was purchased from Enzyme Systems Products (Livermore, Calif.). Activated human C1s was purchased from Calbiochem (La Jolla, Calif.).
Test compounds are prepared as a 10 μM solution in DMSO. Dilutions are prepared in DMSO yielding 7 final concentrations encompassing a 700-fold concentration range.
Reactions were initiated by the addition of a 10 μL aliquot of the enzyme, and the absorbance increase at 405 nm is continuously recorded for 15 minutes in a Molecular Devices plate reader. Final DMSO concentration was 4.3%. […] The ratio of the velocity (rate of change in absorbance as a function of time) for a sample containing no test compound is divided by the velocity of a sample containing test compound, and is plotted as a function of test compound concentration. The data are fit to a linear regression, and the value of the slope of the line calculated. The inverse of the slope is the experimentally determined Ki value.

Work on CSc1sc(C(=N)N)cc1S(=O)(=O)c1cccc(-c2ccc(C)c([N+](=O)[O-])c2)c1 [Example 51, 4-(4′-Methyl-3′-nitro-biphenyl-3-sulfonyl)-5-methylsulfanyl-thiophene-2-carboxamidine] yielded a Ki of 6 to 23 nM.
Work on CCCCCCNC(=N)Nc1ccc(-c2cccc(S(=O)(=O)c3cc(C(=N)N)sc3SC)c2)c(C)c1 [Example 136, 4-[4′-(N′-Hexyl-guanidino)-2′-methyl-biphenyl-3-sulfonyl]-5-methylsulfanyl-thiophene-2-carboxamidine trifluoroacetate] yielded a Ki of 6 to 23 nM.
In the case of COc1ccc(-c2cccc(S(=O)(=O)c3cc(C(=N)N)sc3SC)c2)cc1 [Example 42, 4-(4′-Methoxy-biphenyl-3-sulfonyl)-5-methylsulfanyl-thiophene-2-carboxamidine], the Ki is reported as 6 to 23 nM.
Compound COc1ccccc1-c1cccc(S(=O)(=O)c2cc(C(=N)N)sc2SC)c1 [Example 45, 4-(2′-Methoxy-biphenyl-3-sulfonyl)-5-methylsulfanyl-thiophene-2-carboxamidine] has a Ki of 6 to 23 nM.
For CSc1sc(C(=N)N)cc1S(=O)(=O)c1cccc(-c2cccc(C=O)c2C)c1 [Example 6, 4-(3′-formyl-2′-methyl-biphenyl-3-sulfonyl)-5-methylsulfanyl-thiophene-2-carboxamidine trifluoroacetate], the Ki was 6 to 23 nM.
For CSc1sc(C(=N)N)cc1S(=O)(=O)c1cnc(N)c(Br)c1 [Example 119, 4-(6-Amino-5-bromo-pyridine-3-sulfonyl)-5-methylsulfanyl-thiophene-2-carboxamidine], the Ki was 6 to 23 nM.
Work on CSc1sc(C(=N)N)cc1S(=O)(=O)c1cccc(-c2cccnc2Cl)c1 [Example 10, 4-[3-(2-Chloro-pyridin-3-yl)-benzenesulfonyl]-5-methylsulfanyl-thiophene-2-carboxamidine; bis-trifluoroacetate] yielded a Ki of 6 to 23 nM.
In the case of CSc1sc(C(=N)N)cc1S(=O)(=O)c1cccc(-c2cccc([N+](=O)[O-])c2)c1 [Example 78, 5-Methylsulfanyl-4-(3′-nitro-biphenyl-3-sulfonyl)-thiophene-2-carboxamidine], the Ki is reported as 6 to 23 nM.
Work on CSc1sc(C(=N)N)cc1S(=O)(=O)c1cccc(-c2cccc(C)c2C)c1 [Example 99, 4-(2′,3′-dimethyl-biphenyl-3-sulfonyl)-5-methylsulfanyl-thiophene-2-carboxamidine] yielded a Ki of 6 to 23 nM.
Work on COc1cc(C)c(-c2cccc(S(=O)(=O)c3cc(C(=N)N)sc3SC)c2)c(NC(=O)CS(C)(=O)=O)c1 [Example 254, N-[3′-(5-Carbamimidoyl-2-methylsulfanyl-thiophene-3-sulfonyl)-4-methoxy-6-methyl-biphenyl-2-yl]-2-methanesulfonyl-acetamide trifluoroacetate] yielded a Ki of 6 to 23 nM.
For CSc1sc(C(=N)N)cc1S(=O)(=O)c1cccc(-c2cccc(Cl)c2Cl)c1 [Example 100, 4-(2′,3′-dichloro-biphenyl-3-sulfonyl)-5-methylsulfanyl-thiophene-2-carboxamidine], the Ki was 6 to 23 nM.
CSc1sc(C(=N)N)cc1S(=O)(=O)c1cccc(-c2cccnc2)c1 [Example 70, 5-Methylsulfanyt-4-(3-pyridin-3-yl-benzenesulfonyl)-thiophene-2-carboxamidine] gave a Ki of 6 to 23 nM.
For C=CCOc1cc(-c2ccccc2)cc(S(=O)(=O)c2cc(C(=N)N)sc2SC)c1 [Example 16, 4-(5-Allyloxy-biphenyl-3-sulfonyl)-5-methylsulfanyl-thiophene-2-carboxamidine], the Ki was 6 to 23 nM.
CSc1sc(C(=N)N)cc1S(=O)(=O)c1cccc(-c2c(C)cccc2NC(=O)NCCc2ccccc2)c1 [Example 242, 4-[2′-Methyl-6′-(3-phenethyl-ureido)-biphenyl-3-sulfonyl]-5-methylsulfanyl-thiophene-2-carboxamidine trifluoroacetate] was tested, and the Ki was 6 to 23 nM.
CSc1sc(C(=N)N)cc1S(=O)(=O)c1cccc(-c2ccc(C=O)cc2)c1 [Example 80, 4-(4′-Formyl-biphenyl-3-sulfonyl)-5-methylsulfanyl-thiophene-2-carboxamidine] showed a Ki of 6 to 23 nM.
Work on CSc1sc(C(=N)N)cc1S(=O)(=O)c1cccc(-c2cnccc2C)c1 [Example 9, 4-[3-(4-Methyl-pyridin-3-yl)-benzenesulfonyl]-5-methylsulfanyl-thiophene-2-carboxamidine trifluoroacetate] yielded a Ki of 6 to 23 nM.
CSc1sc(C(=N)N)cc1S(=O)(=O)c1cccc(-c2c(C)cccc2NC(=O)NCCCc2ccccc2)c1 [Example 203, 4-{6′-Methyl-2′-[3-(3-phenyl-propyl)-ureido]-biphenyl-3-sulfonyl}-5-methylsulfanyl-thiophene-2-carboxamidine trifluoroacetate] gave a Ki of 6 to 23 nM.
CSc1sc(C(=N)N)cc1S(=O)(=O)c1cccc(-c2ccc3c(c2)OCO3)c1 [Example 58, 4-(3-Benzo[1,3]dioxol-5-yl-benzenesulfonyl)-5-methylsulfanyl-thiophene-2-carboxamidine] was tested, and the Ki was 6 to 23 nM.
In the case of CSc1sc(C(=N)N)cc1S(=O)(=O)c1cccc(-c2c(C)cccc2NC(=O)C(C)S(C)(=O)=O)c1 (centres unmarked) [Example 258, N-[3′-(5-Carbamimidoyl-2-methylsulfanyl-thiophene-3-sulfonyl)-6-methyl-biphenyl-2-yl]-2-methanesulfonyl-propionamide trifluoroacetate], the Ki is reported as 6 to 23 nM.
With CSc1sc(C(=N)N)cc1S(=O)(=O)c1cccc(-c2c(C)cc(NC(=N)N)cc2NC(=O)CSCCC(=O)O)c1 [Example 239, 3-{[3′-(5-Carbamimidoyl-2-methylsulfanyl-thiophene-3-sulfonyl)-4-guanidino-6-methyl-biphenyl-2-ylcarbamoyl]-methylsulfanyl}-propionic acid bis-trifluoroacetate] the Ki was 6 to 23 nM.
Work on CSc1sc(C(=N)N)cc1S(=O)(=O)c1cccc(-c2ccccc2CO)c1 [Example 68, 4-(2′-Hydroxymethyl-biphenyl-3-sulfonyl)-5-methylsulfanyl-thiophene-2-carboxamidine] yielded a Ki of 6 to 23 nM.
Compound COc1cc(C)c(-c2cccc(S(=O)(=O)c3cc(C(=N)N)sc3SC)c2)c(NC(=O)CCCCCS(C)(=O)=O)c1 [Example 255, 6-Methanesulfonyl-hexanoic acid[3′-(5-carbamimidoyl-2-methylsulfanyl-thiophene-3-sulfonyl)-4-methoxy-6-methyl-biphenyl-2-yl]-amide trifluoroacetate] has a Ki of 6 to 23 nM.
Work on CSc1sc(C(=N)N)cc1S(=O)(=O)c1cccc(-c2ccc(F)cc2)c1 [Example 81, 4-(4′-Fluoro-biphenyl-3-sulfonyl)-5-methylsulfanyl-thiophene-2-carboxamidine] yielded a Ki of 6 to 23 nM.
For CSc1sc(C(=N)N)cc1S(=O)(=O)c1cccc(-c2c(C)cccc2NC(=O)NCCNS(=O)(=O)c2ccccc2)c1 [Example 194, 4-{2′-[3-(2-Benzenesulfonylamino-ethyl)-ureido]-6′-methyl-biphenyl-3-sulfonyl}-5-methylsulfanyl-thiophene-2-carboxamidine trifluoroacetate], the Ki was 6 to 23 nM.
For CSc1sc(C(=N)N)cc1S(=O)(=O)c1cccc(-c2c(C)cccc2NC(=O)CSCC(N)=O)c1 [Example 246, 2-{[3′-(5-Carbamimidoyl-2-methylsulfanyl-thiophene-3-sulfonyl)-6-methyl-biphenyl-2-ylcarbamoyl]-methylsulfanyl}-acetamide trifluoroacetate], the Ki was 6 to 23 nM.
In the case of CSc1sc(C(=N)N)cc1S(=O)(=O)c1cccc(-c2ccccc2Cl)c1 [Example 69, 4-(2′-Chloro-biphenyl-3-sulfonyl)-5-methylsulfanyl-thiophene-2-carboxamidine], the Ki is reported as 6 to 23 nM.
